Test results from publication PMC11369887 (RSC Advances, 2024).
Where two headings read alike, the source gives them in different places.

Tests used:
[1] = molecular target: T1, human DNA topoisomerase II beta (Topo2β) (Homo sapiens, UniProt Q02880); test: Topo2β polymerase inhibition assay (ELISA), MCF-7; type: cell-based; details: against MCF-7 cell line
Description: This assay was employed to predict the inhibitory effects of novel compounds on Topo2β. […] The melting points were determined using a Stuart apparatus, and the values given are uncorrected. IR spectra were recorded using a Shimadzu IR 4000s spectrophotometer (KBr, cm^−1) at the College of Pharmaceutical Sciences and Drug Manufacturing, Misr University for Science and Technology, Egypt. ^1H NMR spectra were recorded using a Bruker 400 MHz (Bruker Corp., Billerica, MA, USA) spectrophotometer, Faculty of Pharmacy, Cairo University, Cairo, Egypt and the Centre of Drug Discovery Research & Development, Faculty of Pharmacy, Ain shams University, and a Jeol 500 MHz spectrophotometer at the National Research Center. Chemical shifts were recorded in ppm on a δ scale, coupling constants (J) were given in Hz and peak multiplicities are designed as follows: s, singlet; d, doublet; t, triplet; m, multiplet. ^13C NMR spectra were recorded using a Bruker 100 MHz spectrophotometer, Faculty of Pharmacy, Cairo University and the Centre of Drug Discovery Research & Development, Faculty of Pharmacy, Ain shams University, and a Jeol 500 MHz spectrophotometer at the National Research Center. Chemical shifts were recorded in ppm on a δ scale. Microanalyses for C, H, and N were carried out at the Regional Center for Mycology and Biotechnology, Faculty of Pharmacy, Al-Azhar University. C, H, and N analysis values were accepted within the range of ± 0.4 of the calculated percentages. […] The used eluting system was methanol : hexane with a ratio of 9.5/0.5 respectively. Scientific microwave MAS-II was used under 300 W microwave irradiation, operating at 80 °C. The evaluation of the cytotoxic activity was performed at VACSERA, Giza, Egypt, using MCF-7, Hep3B and leukemia SR cell lines. […]
This assay employs a quantitative sandwich enzyme immunoassay technique. […] The color development was stopped, and the intensity of the color was measured. […] The mean OD value of 20 replicates of the zero standard was determined and added to their three standard deviations.[64]

[2] = system: human breast cancer (MCF-7) cell line; test: MTT cytotoxicity assay, MCF-7; details: Homo sapiens, MCF7, 48 h, read-out: Cytotoxicity IC50 MCF-7
Description: (§2) The newly synthesized compounds were evaluated for their in vitro growth inhibition of three human tumor cell lines representing different tumor types, namely, breast adenocarcinoma (MCF-7), liver hepatocellular carcinoma (Hep3B) and leukemia-SR. […] The breast tumor cell line (MCF-7), hepatic tumor cell line (Hep3B) and leukemia-SR cell line were obtained from American Type Culture Collection. The cells were cultured using Dulbecco's modified Eagle's medium (DMEM) (Invitrogen/Life Technologies) supplemented with 10% fetal bovine serum (FBS) (Hyclone), 10 μg mL^−1 of insulin (Sigma), and 1% penicillin–streptomycin. […] For 24 hours before to the MTT experiment, plate cells (densities of 1.2–1.8 × 10 000 cells per well) were layered in a 96-well plate containing 100 μL of the tested chemical per well and 100 μL of full growth media.
(§3) The culture medium was transferred to a centrifuge tube. […] Then 2.0 to 3.0 mL of Trypsin EDTA solution was added to the flask, and the cells were observed using an inverted microscope until the cell layer became dispersed (usually within 5–15 min). After that, 6.0 to 8.0 mL of complete growth medium was added and the cells were aspirated by gently pipetting. The cell suspension was transferred to the centrifuge tube with the medium and cells from step 1 and centrifuged at approximately 125 g for 5–10 min. The supernatant was discarded. The cell pellet was re-suspended in a fresh growth medium. Appropriate aliquots of the cell suspension were added to new culture vessels.
(§4) For the best results, the cells in the log phase of growth should be employed and the final cell number should not exceed 10^6 cells per cm^2. Each test should include a blank containing a complete medium without cells. Cultures from the incubator were transferred into a laminar flow hood or other sterile work area. […] Reconstituted MTT was added in an amount equal to 10% of the culture medium volume. Cultures were returned to the incubator for 2–4 h depending on the cell type and maximum cell density. An incubation period of 2 h is generally adequate but may be lengthened for low cell densities or cells with lower metabolic activity. The incubation times should be consistent when making comparisons. […] Occasionally, especially in dense cultures, pipetting up and down may be required to completely dissolve the MTT formazan crystals. The absorbance was spectrophotometrically measured at a wavelength of 570 nm. The background absorbance of multiwell plates was measured at 690 nm and subtracted from the 450 nm measurement. Tests performed in multiwell plates might be read using an appropriate type of plate reader or the contents of individual wells might be transferred to appropriate size cuvettes for spectrophotometric measurement.

in vitro [3] = details: human, MCF-10a normal breast cells
Description: (§5) The following normal cell lines were selected: normal breast MCF-10a, normal liver THLE2 and normal lymphocyte PCS-800-011. […] Moreover, the toxic effect of representative target compounds was evaluated on normal breast (MCF10a), normal liver (THLE2) and normal lymphocyte (PCS-800-011) cell lines using an MTT assay. […] The cells were cultured using Dulbecco's modified Eagle's medium (DMEM) (Invitrogen/Life Technologies) supplemented with 10% fetal bovine serum (FBS) (Hyclone), 10 μg mL^−1 of insulin (Sigma), and 1% penicillin–streptomycin. All chemicals and reagents were purchased from Sigma-Aldrich or Invitrogen. For 24 hours before to the MTT experiment, plate cells (densities of 1.2–1.8 × 10 000 cells per well) were layered in a 96-well plate containing 100 μL of the tested chemical per well and 100 μL of full growth media.
as §3
For the best results, the cells in the log phase of growth should be employed and the final cell number should not exceed 10^6 cells per cm^2. […] The absorbance was spectrophotometrically measured at a wavelength of 570 nm. The background absorbance of multiwell plates was measured at 690 nm and subtracted from the 450 nm measurement. Tests performed in multiwell plates might be read using an appropriate type of plate reader or the contents of individual wells might be transferred to appropriate size cuvettes for spectrophotometric measurement.

[4] = system: human liver cancer (Hep3B) cell line; test: MTT cytotoxicity assay, Hep3B; details: Homo sapiens, Hep3B
Description: as §2, §3, §4

in vitro [5] = details: human, THLE2 normal liver cells
Description: as §5, §3, §4

[6] = molecular target: T1, human DNA topoisomerase II beta (Topo2β); test: Topo2β polymerase inhibition assay (ELISA), L-SR; type: cell-based; set-up: endogenous in cells; host or cells: MCF-7 (A4), Hep3B (A5), L-SR (A6) human cancer cell lines; details: against L-SR cell line
Description: (§1) This assay was employed to predict the inhibitory effects of novel compounds on Topo2β. […] The melting points were determined using a Stuart apparatus, and the values given are uncorrected. IR spectra were recorded using a Shimadzu IR 4000s spectrophotometer (KBr, cm^−1) at the College of Pharmaceutical Sciences and Drug Manufacturing, Misr University for Science and Technology, Egypt. ^1H NMR spectra were recorded using a Bruker 400 MHz (Bruker Corp., Billerica, MA, USA) spectrophotometer, Faculty of Pharmacy, Cairo University, Cairo, Egypt and the Centre of Drug Discovery Research & Development, Faculty of Pharmacy, Ain shams University, and a Jeol 500 MHz spectrophotometer at the National Research Center. Chemical shifts were recorded in ppm on a δ scale, coupling constants (J) were given in Hz and peak multiplicities are designed as follows: s, singlet; d, doublet; t, triplet; m, multiplet. ^13C NMR spectra were recorded using a Bruker 100 MHz spectrophotometer, Faculty of Pharmacy, Cairo University and the Centre of Drug Discovery Research & Development, Faculty of Pharmacy, Ain shams University, and a Jeol 500 MHz spectrophotometer at the National Research Center. Chemical shifts were recorded in ppm on a δ scale. Microanalyses for C, H, and N were carried out at the Regional Center for Mycology and Biotechnology, Faculty of Pharmacy, Al-Azhar University. C, H, and N analysis values were accepted within the range of ± 0.4 of the calculated percentages. […] The used eluting system was methanol : hexane with a ratio of 9.5/0.5 respectively. Scientific microwave MAS-II was used under 300 W microwave irradiation, operating at 80 °C. The evaluation of the cytotoxic activity was performed at VACSERA, Giza, Egypt, using MCF-7, Hep3B and leukemia SR cell lines. Enzyme assay, cell cycle analysis, apoptosis and caspase-3 assay were carried out at VACSERA, Giza, Egypt using an SEB870Hu 96 Tests Enzyme-linked Immunosorbent Assay Kit for Topoisomerase II Beta.
This assay employs a quantitative sandwich enzyme immunoassay technique. […] Antibody specific for Topo2β was pre-coated onto a microplate. Standards and samples were pipetted into the wells and any Topo2β present was bound by the immobilized antibody. After removing any unbound substances, a biotin-conjugated antibody specific for Topo2β was added to the wells. After washing, avidin-conjugated Horseradish Peroxidase (HP) was added to the wells. […] The color development was stopped, and the intensity of the color was measured. […] The mean OD value of 20 replicates of the zero standard was determined and added to their three standard deviations.[64]

Hep3B cells [7] = test: Annexin V-FITC/propidium iodide apoptosis assay; details: for Total %: apoptosis and necrosis total; for Total % / Early apoptosis % / Late apoptosis % / Necrosis %: treated at IC50; for percentage of apoptotic cells (summation of Q2 and Q3): early plus late apoptosis
Description: An Annexin-V-FITC apoptosis assay was used to determine apoptosis and necrosis. The cells were incubated with Annexin-V-FITC, centrifuged and then resuspended in 500 μL of 1× binding buffer. Then 5 μL of Annexin-V-FITC and 5 μL of propidium iodide (PI) were added, and the cells were then trypsinized and washed once with serum-containing media before incubation with Annexin-V-FITC at room temperature for 5 min in the dark. A FACSort Calibur flow cytometer (Becton Dickinson Biosciences) was used to analyze apoptosis.[56,57]

Hep3B cells [8] = test: Cell cycle analysis by propidium iodide staining, flow cytometry; type: cell-based, human; details: Hep3B cells treated at IC50
Description: An apoptosis study was performed at the Cell Culture Unit, VACSERA, Cairo, Egypt. […] The treated cells were washed twice with ice-cold phosphate-buffered saline (PBS), centrifuged and then fixed in ice-cold 70% (v/v) ethanol to prevent clustering of cells during fixation. […] Then 3 mL of PBS was added, and the cells were centrifuged to remove the supernatant. The cells were analyzed by flow cytometry using a FACSort Calibur (Becton Dickinson Biosciences, CA, USA). Finally, the Cell Quest software was used to determine the cell cycle distribution.[65,66]

in vitro [9] = details: human, PCS-800-011 normal lymphocyte cells
Description: as §5, §3, §4

active caspase-3 = test: Caspase-3 enzyme assay (ELISA) in Hep3B; type: cell-based, human; details: Hep3B cells
Description: Caspases are crucial mediators of apoptosis. Among them, caspase-3 is considered as a key effector caspase in inducing cell apoptosis and serves as a marker of programmed cell death.[58] Compounds 3c and 5 were tested for their effect on caspase-3 levels in the most sensitive liver cancer cell line Hep3B.
Caspase-3 is one of the crucial mediators of programmed cell death (apoptosis) as it is essential for the formation of apoptotic bodies.[67–70] Active caspase-3 level was measured in pg ml^−1 protein using an Invitrogen ELISA kit (catalog KHO1091). The following procedures were performed. First, 100 μL of the standard diluent buffer was added to the zero standard wells. Then, 100 μL of standards and controls or diluted samples were added to the appropriate microtitre wells. Cover wells were covered and incubated for 2 h at room temperature. The solution was decanted from wells. Then 100 μL of active caspase-3 detection antibody solution was pipetted into each well. The plate was covered and incubated for 1 h at room temperature. After that, 100 μL of Anti-Rabbit IgG HP working solution was added to each well. The wells were covered with a plate cover and incubated for 30 min at room temperature. Then, 100 μL of stabilized chromogen was added to each well. The liquid in the wells will begin to turn blue, and the wells were incubated for 30 min at room temperature. A stop solution was added to each well. The solution in the wells should change from blue to yellow. The plate was read within 2 h after adding the stop solution. Curve fitting software was used to generate the standard curve.

[10] = molecular target: T1, human DNA topoisomerase II beta (Topo2β); test: Topo2β polymerase inhibition assay (ELISA), Hep3B; type: cell-based; set-up: concentration or dose not given beside the values; details: against Hep3B cell line
Description: as §1
This assay employs a quantitative sandwich enzyme immunoassay technique. […] Antibody specific for Topo2β was pre-coated onto a microplate. Standards and samples were pipetted into the wells and any Topo2β present was bound by the immobilized antibody. After removing any unbound substances, a biotin-conjugated antibody specific for Topo2β was added to the wells. After washing, avidin-conjugated Horseradish Peroxidase (HP) was added to the wells. Following washing to remove any unbound avidin–enzyme reagent, a substrate solution was added to the wells and color develops in proportion to the amount of Topo2β bound in the initial step. The color development was stopped, and the intensity of the color was measured. […] The sensitivity of this assay or lower limit of detection (LLD) is defined as the lowest protein concentration that could be differentiated from zero. The mean OD value of 20 replicates of the zero standard was determined and added to their three standard deviations.[64]

[11] = system: leukemia (L-SR) cell line; test: MTT cytotoxicity assay, L-SR; details: Homo sapiens, 48 h, read-out: Cytotoxicity IC50 L-SR
Description: as §2, §3, §4

[12] = system: leukemia (L-SR) cell line
Description: as §2, §3, §4

[13] = system: human liver cancer (Hep3B) cell line
Description: as §2, §3, §4

[14] = system: human breast cancer (MCF-7) cell line
Description: as §2, §3, §4

[15] = 48 h, read-out: Cytotoxicity IC50 Hep3B

T1 sequence (Q02880 whole entry): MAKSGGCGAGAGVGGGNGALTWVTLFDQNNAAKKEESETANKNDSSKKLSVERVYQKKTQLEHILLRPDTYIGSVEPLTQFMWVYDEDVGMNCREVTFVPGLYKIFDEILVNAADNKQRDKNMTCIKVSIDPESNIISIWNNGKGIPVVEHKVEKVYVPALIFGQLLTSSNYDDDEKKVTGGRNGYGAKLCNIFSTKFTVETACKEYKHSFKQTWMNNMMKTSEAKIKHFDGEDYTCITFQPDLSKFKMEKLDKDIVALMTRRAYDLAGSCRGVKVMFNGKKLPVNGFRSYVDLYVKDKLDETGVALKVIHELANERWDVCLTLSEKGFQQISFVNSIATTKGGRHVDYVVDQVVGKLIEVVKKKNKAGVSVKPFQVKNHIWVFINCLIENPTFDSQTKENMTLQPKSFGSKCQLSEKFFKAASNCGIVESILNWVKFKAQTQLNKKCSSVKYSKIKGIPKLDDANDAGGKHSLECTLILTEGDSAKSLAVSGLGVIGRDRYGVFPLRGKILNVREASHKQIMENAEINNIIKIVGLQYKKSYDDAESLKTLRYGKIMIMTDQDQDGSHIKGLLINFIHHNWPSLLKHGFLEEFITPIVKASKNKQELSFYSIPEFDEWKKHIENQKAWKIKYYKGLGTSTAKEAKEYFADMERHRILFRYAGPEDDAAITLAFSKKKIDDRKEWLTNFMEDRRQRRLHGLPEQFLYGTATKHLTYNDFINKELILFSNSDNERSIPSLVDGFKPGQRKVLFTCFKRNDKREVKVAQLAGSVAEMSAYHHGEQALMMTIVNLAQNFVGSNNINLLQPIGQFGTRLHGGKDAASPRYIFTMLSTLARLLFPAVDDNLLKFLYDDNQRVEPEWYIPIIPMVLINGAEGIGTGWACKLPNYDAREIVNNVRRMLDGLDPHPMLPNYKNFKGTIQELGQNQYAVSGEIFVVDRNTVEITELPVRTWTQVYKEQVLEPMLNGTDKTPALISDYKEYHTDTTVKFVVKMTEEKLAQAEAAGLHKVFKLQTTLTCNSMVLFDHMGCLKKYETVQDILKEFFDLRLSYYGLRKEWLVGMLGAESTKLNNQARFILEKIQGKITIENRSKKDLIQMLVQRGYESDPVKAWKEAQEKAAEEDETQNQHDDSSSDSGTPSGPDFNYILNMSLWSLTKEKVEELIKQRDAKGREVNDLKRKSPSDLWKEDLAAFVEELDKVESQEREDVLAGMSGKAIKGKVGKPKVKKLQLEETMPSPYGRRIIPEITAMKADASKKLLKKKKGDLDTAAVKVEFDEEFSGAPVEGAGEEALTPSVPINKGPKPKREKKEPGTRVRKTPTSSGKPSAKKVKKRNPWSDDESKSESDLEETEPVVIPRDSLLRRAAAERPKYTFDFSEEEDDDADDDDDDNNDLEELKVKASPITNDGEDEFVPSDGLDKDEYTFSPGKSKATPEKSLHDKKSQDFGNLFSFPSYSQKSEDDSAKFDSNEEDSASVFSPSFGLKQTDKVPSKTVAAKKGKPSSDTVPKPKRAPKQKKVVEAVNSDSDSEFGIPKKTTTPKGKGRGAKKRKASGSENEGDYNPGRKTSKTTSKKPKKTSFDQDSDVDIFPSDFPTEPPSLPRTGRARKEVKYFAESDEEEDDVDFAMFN

Compound | Topo2β% inhibition [1] | IC50 [2] | IC50 at 48 h (in vitro [3]) | IC50 [4, 15] | IC50 at 48 h (in vitro [5]) | Topo2β% inhibition [6] | Total % (Hep3B cells [7]) | percentage of apoptotic cells (summation of Q2 and Q3) (Hep3B cells [7]) | Early apoptosis % (Hep3B cells [7]) | Late apoptosis % (Hep3B cells [7]) | Necrosis % (Hep3B cells [7]) | DNA content %G0–G1 (Hep3B cells [8]) | DNA content %G2/M (Hep3B cells [8]) | DNA content %S (Hep3B cells [8]) | IC50 at 48 h (in vitro [9]) | Caspase-3 Conc. (active caspase-3) | Topo2β% inhibition [10] | IC50 [11] | IC50 [4] | further results
CCOC(=O)CC(C)=NNC(=O)c1cn2c3c(c(N4CCN(C)CC4)c(F)cc3c1=O)OCC2C (centres unmarked) [Compound 5, Ethyl 3-(2-(9-fluoro-3-methyl-10-(4-methylpiperazin-1-yl)-7-oxo-2,3-dihydro-7H-[1,4]oxazino[2,3,4-ij]quinoline-6-carbonyl)hydrazineylidene)butanoate] | 78.30% | 1.4 ± 0.06 µM | 30.4 ± 1.66 µM | 3.77 ± 0.17 µM | 40.6 ± 2.28 µM | 80.29% | 38.11% | 32.21% | 9.54% | 22.67% | 5.9% | 38.49% | 22.42% | 39.09% | 19.7 ± 1.03 µM | 375.8 ± 16.6 pg/mL | 83.73% | 0.96 ± 0.06 µM |  | 
COc1ccc(C=NNC(=O)c2cn3c4c(c(N5CCN(C)CC5)c(F)cc4c2=O)OCC3C)cc1 (centres unmarked) [Compound 3c, 9-Fluoro-3-methyl-10-(4-methylpiperazin-1-yl)-N′-(4-methoxybenzylidene)-7-oxo-2,3-dihydro-7H-[1,4]oxazino[2,3,4-ij]quinoline-6-carbohydrazide] |  | 40.6 ± 3.17 µM |  | 0.43 ± 0.01 µM | 20 ± 0.76 µM |  | 32.91% | 25.87% | 11.54% | 14.33% | 7.04% | 43.53% | 18.91% | 37.56% |  | 407.3 ± 7.55 pg/mL | 81.33% | 22.4 ± 1.34 µM | 0.43 µM | 
C[C@H]1COc2c(N3CCN(C)CC3)c(F)cc3c(=O)c(C(=O)O)cn1c23 [Levofloxacin, reference compound] | 59.80% | 2.79 ± 0.16 µM | 22.2 ± 1.41 µM | 8.94 ± 0.29 µM | 29.9 ± 1.52 µM | 70.40% | 34.62% | 23.60% | 0.95% | 22.65% | 11.02% | 29.66% | 39.87% | 30.47% | 20.2 ± 0.85 µM | 391.7 ± 5.86 pg/mL | 73.59% | 7.38 ± 0.31 µM | 8.94 µM | 
COc1cc([C@@H]2c3cc4c(cc3[C@@H](O[C@@H]3O[C@@H]5CO[C@@H](C)O[C@H]5[C@H](O)[C@H]3O)[C@H]3COC(=O)[C@H]23)OCO4)cc(OC)c1O [Etoposide, reference compound] | 63.18% | 16.3 ± 0.72 µM | 23.9 ± 1.55 µM | 21.9 ± 0.72 µM | 35.2 ± 2.19 µM | 69.85% | 27.09% |  | 3.41% | 9.37% | 14.31% | 36.14% | 37.62% | 26.24% | 37.1 ± 1.79 µM | 460 ± 11.3 pg/mL | 73.22% | 3.38 ± 0.13 µM | 21.9 µM | 
9-Fluoro-3-methyl-6-((3-methyl-5-oxo-4,5-dihydro-1H-pyrazol-1-yl)carbonyl)-10-(4-methylpiperazin-1-yl)-2,3-dihydro-7H-[1,4]oxazino[2,3,4-ij]quinolin-7-one [Compound 6] |  |  |  |  |  |  |  |  |  |  |  |  |  |  |  |  |  |  |  | IC50 [12]: 28.9 ± 1.75 µM; IC50 [13]: 13.1 ± 0.61 µM; IC50 [14]: 40.6 ± 1.88 µM
CC1COc2c(N3CCN(C)CC3)c(F)cc3c(=O)c(C(=O)N4NC(=O)CC4=N)cn1c23 (centres unmarked) [Compound 7, 9-Fluoro-6-((5-imino-3-oxopyrazolidine-1-yl)carbonyl)-3-methyl-10-(4-methylpiperazin-1-yl)-2,3-dihydro-7H-[1,4]oxazino[2,3,4-ij]quinolin-7-one] |  | 4.37 ± 0.2 µM |  | 6.99 ± 0.32 µM | 68.5 ± 3.86 µM |  |  |  |  |  |  |  |  |  | 32.1 ± 1.68 µM |  | 71.92% | 12.1 ± 0.73 µM |  | melting point: 101 to 103 °C
